From ChEMBL document CHEMBL3085757, “Pyrazole scaffold: a remarkable tool in the development of anticancer agents” (Eur J Med Chem, 2013)

Test system: Artemia salina
Experiment: Cytotoxicity against brine shrimp
Format: functional, organism-based

Row | SMILES | IC50
1 | CC(=O)NNC1=NN(C(C)=O)C2(O1)C(=O)N(c1ccc(Br)cc1Br)N=C2C (centres undefined) | 20 ppm
2 | CC1=NN(c2ccc(Br)cc2Br)C(=O)/C1=N\NC(N)=S | 36 ppm
3 | CC(=O)NC1=NN(C(C)=O)C2(S1)C(=O)N(c1ccc(Br)cc1Br)N=C2C (centres undefined) | 19.5 ppm
4 | CC1=NN(c2ccc(Br)cc2Br)C(=O)C1=O | 36 ppm
